Results on 22 compounds are retold here after patent US11447511B2, “Dioxolane analogues of uridine for the treatment of cancer” (MEDIVIR AB, priority 2014, dated 2022).

In one data set the test system is Huh7. The data set is described as follows: Cell cytotoxicity assay, HUH7. The format is cell-based. To be noted: Huh7 cells, 5 days at 37° C., XTT dye. As to the method: (§1) Cells were seeded 24 hours prior to compound addition. Each test compound (serially diluted from 100 μM) was added to Huh7 (1.5×10^4 cells/well) or HepG2 (1.5×10^4 cells/well), and allowed to incubate for 5 days at 37° C. A medium only control was used to determine the minimum absorbance value and an untreated cell value. At the end of the growth period, XTT dye from Polysciences Europe GmbH was added to each well. The absorbance at 450 nm with a reference wavelength of 600 nm was read with a Sunrise (Tecan) using the medium only control wells as blanks. The 50% inhibition value (CC50) was determined by comparing the degree of inhibition (compared to cell control) plotted against compound concentration. Results from the dilution series were fitted to a sigmoidal dose-response curve.
(§2) Compounds of the invention were evaluated in these assays to assess the stability in human intestinal S9 fraction (HIS9) and human liver S9 fraction (HLS9), and for Cell Cytotoxicity in HUH7, HEP3B and HEPG2 cells.

Another data set has as its system HepG2. The data set is described as follows: Cell cytotoxicity assay, HEPG2. To be noted: HepG2 cells, 5 days at 37° C., XTT dye. The format is cell-based. As to the method:
as §1, §2

A short description of data set [1]: Stability in human liver S9 fraction (HLS9). In kind it is in vitro ADME. To be noted: human liver S9 0.4 mg protein/mL, 5 μM test compound, 37° C.; for microsomal CLint at 5 μM: liver S9 fraction, pH 7.4. As to the method:
(§3) Stability in Human Intestinal S9 Fraction (HIS9) and in Human Liver S9 Fraction (HLS9),
(§4) Stock solutions of each test compound (10 mM) were prepared in DMSO and stored at −20° C. Prior to the start of the experiment, the test compounds were diluted to 500 μM in 50% acetonitrile in water. The reaction mixture was prepared in a total volume of 250 μL containing 5 mM MgC2, 1 mM NADPH and 5 μM test compound in 50 mM potassium phosphate buffer (pH 7.4). The reaction was initiated by addition of human liver or intestinal S9 fraction with a final concentration of 0.4 mg protein/mL (Xeno Tech). The reaction mixture was incubated on an orbital shaker at 37° C. At the desired time points (0, 10, 30 and 60 minutes) aliquots of 50 μL were taken and the reaction was stopped by mixing with 150 μL acetonitrile containing internal standard. Standard solutions of each test compound were prepared from the 500 μM solution by diluting the solution to a final concentration of 5 μM in boiled human S9 (0.4 mg protein/mL), 5 mM MgCl2 and 50 mM potassium phosphate buffer (pH 7.4). The standards and samples were kept on ice for 30 min then centrifuged at 3 000 g for 20 minutes at 10° C., there after 10 μL of supernatant was mixed with 200 μL 50% acetonitrile in water. 0.5 μM of each test compound in 50% acetonitrile in water was injected into the LC/MS-MS to determine the daughter ion, declustring potential (DP), collision energy (CE) and collision cell exit potential (CXP) in order to develop a LC/MS-MS method. The compounds were separated using a C18 column with a QTRAP5500 system. The mobile phase consisted of solvent A (98% water, 2% acetonitrile, 0.1% acetic acid or 10 mM ammonium acetate) and solvent B (80% acetonitrile, 20% water, 0.1% acetic acid or 10 mM ammonium acetate). Elution of the compounds was performed by using a gradient of solvent B from 0% to 100%. 5 μL of standard points and samples were injected for analysis with QTRAP5500.
(§5) The amount of parent compound was determined on the basis of the peak area for each time point compared to standard which was set to 5 μM. Intrinsic clearance (CLint) and half-life (t1/2) were determined from the disappearance curves of the test compound using Excel software.

Data set [2] in a line: Stability in human intestinal S9 fraction (HIS9). The format is in vitro ADME. The conditions noted are these: human intestinal S9 0.4 mg protein/mL, 5 μM test compound, 37° C.; for microsomal CLint at 5 μM: intestinal S9 fraction, pH 7.4. As to the method: as §3, §4, §5

As for `CC(C)OC(=O)[C@H](C)NP(=O)(OC[C@H]1OC[C@@H](n2ccc(N)nc2=O)O1)Oc1cccc2ccccc12` (single isomer, unassigned; dia-1) [5 dia-1], the results for the half-maximal cytotoxic concentration (CC50) in the data set on Huh7 and in the data set on HepG2 were 0.465 µM and 0.107 µM, respectively. Further, the “CLint Liver S9” value in data set [1] was found to be 32 µL/min/mg. Also, the “CLint Intestinal S9” value in data set [2] worked out at 21 µL/min/mg.
The corresponding values for `C[C@H](NP(=O)(OC[C@H]1OC[C@@H](n2ccc(N)nc2=O)O1)Oc1ccccc1)C(=O)OCc1ccccc1` (single isomer, unassigned; dia-1) [19 dia-1] are 0.091 µM, 0.018 µM, 19 µL/min/mg and 26 µL/min/mg.
With `CC(C)OC(=O)[C@@H](C)NP(=O)(OC[C@H]1OC[C@@H](n2ccc(N)nc2=O)O1)Oc1ccccc1` (single isomer, unassigned; dia-1) [17 dia-1], the cytotoxic concentration (CC50) with Huh7 and in the data set with HepG2 was 50 µM in each case. For the same compound, the “CLint Liver S9” value in data set [1] came to 6 µL/min/mg. Moreover, the “CLint Intestinal S9” value in data set [2] was found to be 6 µL/min/mg.
For `CCCC(CCC)COC(=O)[C@H](C)NP(=O)(OC[C@H]1OC[C@@H](n2ccc(N)nc2=O)O1)Oc1cccc2ccccc12` (single isomer, unassigned; dia-1) [14 dia-1], the values for the CC50 in the data set on Huh7 and with HepG2 were 0.216 µM and 0.016 µM, respectively. For the same compound, the “CLint Liver S9” value in data set [1] turned out to be 88 µL/min/mg. Also, the “CLint Intestinal S9” value in data set [2] worked out at 30 µL/min/mg.
On to `CCCC(CCC)COC(=O)[C@H](C)NP(=O)(OC[C@H]1OC[C@@H](n2ccc(N)nc2=O)O1)Oc1cccc2ccccc12` (single isomer, unassigned; dia-2) [14 dia-2], for which the cytotoxic concentration (CC50) in the data set with Huh7 stood at 0.2 µM; with HepG2, 0.012 µM. For the same compound, the “CLint Liver S9” value in data set [1] was 159 µL/min/mg. Also, in data set [2], the “CLint Intestinal S9” value is 59 µL/min/mg.
`C[C@H](NP(=O)(OC[C@H]1OC[C@@H](n2ccc(N)nc2=O)O1)Oc1cccc2ccccc12)C(=O)OCc1ccccc1` (single isomer, unassigned; dia-1) [9 dia-1]: the CC50 in the data set with Huh7 is 0.164 µM; in the data set with HepG2, 0.023 µM. The “CLint Liver S9” value in data set [1] is 133 µL/min/mg. In addition, in data set [2], the “CLint Intestinal S9” value came out at 171 µL/min/mg.
In the same order, the values of `Nc1ccn([C@@H]2CO[C@H](COP(=O)(N[C@@H](Cc3ccccc3)C(=O)OCc3ccccc3)Oc3cccc(C4CC4)c3)O2)c(=O)n1` (single isomer, unassigned; dia-1) [12 dia-1] are 4.33 µM, 0.481 µM, 182 µL/min/mg and 300 µL/min/mg.
The corresponding values for `CCC(CC)COC(=O)[C@H](C)NP(=O)(OC[C@H]1OC[C@@H](n2ccc(N)nc2=O)O1)Oc1ccccc1` (single isomer, unassigned; dia-2) [15 dia-2] are 0.026 µM, 0.019 µM, 95 µL/min/mg and 36 µL/min/mg.
Consider `CC[C@@H](C)OC(=O)[C@H](C)NP(=O)(OC[C@H]1OC[C@@H](n2cc(F)c(N)nc2=O)O1)Oc1ccccc1` (single isomer, unassigned) [32 dia-2], for which the intrinsic clearance (microsomal CLint) at 5 μM is 27 µL/min/mg in data set [1] and 8 µL/min/mg in data set [2].
In data set [1], `CC[C@H](C)OC(=O)[C@H](C)NP(=O)(OC[C@H]1OC[C@@H](n2ccc(N)nc2=O)O1)Oc1ccccc1` (single isomer, unassigned) [31 dia-2] gave a microsomal CLint at 5 μM of 8 µL/min/mg. The “CLint Intestinal S9” value in data set [2] stood at 6 µL/min/mg.
Take `Nc1ccn([C@@H]2CO[C@H](COP(=O)(N[C@@H](Cc3ccccc3)C(=O)OCc3ccccc3)Oc3cccc(C4CC4)c3)O2)c(=O)n1` (single isomer, unassigned; dia-2) [12 dia-2]: the results for the CC50 in the data set with Huh7 and in the data set with HepG2 were 5.02 µM and 1.09 µM, respectively. The “CLint Liver S9” value in data set [1] came out at 97 µL/min/mg. Further, in data set [2], the “CLint Intestinal S9” value came to 300 µL/min/mg.
Consider `CC[C@@H](C)OC(=O)[C@H](C)NP(=O)(OC[C@H]1OC[C@@H](n2ccc(N)nc2=O)O1)Oc1cccc(C2CCC2)c1` (single isomer, unassigned; dia-2) [33 dia-2], for which the “CLint Liver S9” value in data set [1] was determined as 230 µL/min/mg. In addition, in data set [2], the “CLint Intestinal S9” value stood at 75 µL/min/mg.
Turning to `CCC[C@@H](C)OC(=O)[C@H](C)NP(=O)(OC[C@H]1OC[C@@H](n2ccc(N)nc2=O)O1)Oc1ccccc1` (single isomer, unassigned) [30 dia-2], the microsomal CLint at 5 μM in data set [1] was 120 µL/min/mg; in data set [2], 11 µL/min/mg.
Consider `C[C@H](NP(=O)(OC[C@H]1OC[C@@H](n2ccc(N)nc2=O)O1)Oc1cccc2ccccc12)C(=O)OC1CCCCC1` (single isomer, unassigned; dia-2) [6 dia-2], for which the figures for the cytotoxic concentration (CC50) with Huh7 and in the data set with HepG2 were 0.316 µM and 0.048 µM, respectively. The “CLint Liver S9” value in data set [1] was found to be 61 µL/min/mg. For the same compound, in data set [2], the “CLint Intestinal S9” value is 25 µL/min/mg.
Take `CCC(CC)OC(=O)[C@H](C)NP(=O)(OC[C@H]1OC[C@@H](n2ccc(N)nc2=O)O1)Oc1ccccc1` (single isomer, unassigned; dia-2) [21 dia-2]: the values for the cytotoxic concentration (CC50) in the data set on Huh7 and in the data set on HepG2 were 0.07 µM and 0.048 µM, respectively. Also, the “CLint Liver S9” value in data set [1] is 22 µL/min/mg. The “CLint Intestinal S9” value in data set [2] was 10 µL/min/mg.
The corresponding values for `CCCC(CCC)COC(=O)C(Cc1ccccc1)NP(=O)(OCC1OCC(n2ccc(N)nc2=O)O1)Oc1ccccc1` (mixture of isomers) [13 diamix 4:1] are 0.663 µM, 0.163 µM, 85 µL/min/mg and 27 µL/min/mg.
In the same order, the values of `C[C@H](NP(=O)(OC[C@H]1OC[C@@H](n2ccc(N)nc2=O)O1)Oc1cccc2ccccc12)C(=O)OC1CCCC1` (single isomer, unassigned; dia-1) [22 dia-1] are 0.033 µM, 0.012 µM, 49 µL/min/mg and 52 µL/min/mg.
In the same order, the values of `C[C@H](NP(=O)(OC[C@H]1OC[C@@H](n2ccc(N)nc2=O)O1)Oc1cccc2ccccc12)C(=O)OCc1ccccc1` (single isomer, unassigned; dia-2) [9 dia-2] are 0.158 µM, 0.016 µM, 94 µL/min/mg and 127 µL/min/mg.
Consider `CCCC(CCC)COC(=O)[C@H](C)NP(=O)(OC[C@H]1OC[C@@H](n2ccc(N)nc2=O)O1)Oc1ccc(Br)cc1` (single isomer, unassigned; dia-2) [23 dia-2], for which the “CLint Liver S9” value in data set [1] was determined as 300 µL/min/mg. Also, in data set [2], the “CLint Intestinal S9” value was determined as 20 µL/min/mg.
For `CC[C@@H](C)OC(=O)[C@H](C)NP(=O)(OC[C@H]1OC[C@@H](n2ccc(N)nc2=O)O1)Oc1cccc(C2CCC2)c1` (single isomer, unassigned; dia-1) [33 dia-1], in data set [1], the “CLint Liver S9” value was found to be 180 µL/min/mg. In data set [2], the “CLint Intestinal S9” value is 27 µL/min/mg.
Turning to `CC(C)OC(=O)[C@@H](C)NP(=O)(OC[C@H]1OC[C@@H](n2ccc(N)nc2=O)O1)Oc1ccccc1` (single isomer, unassigned; dia-2) [17 dia-2], in the data set on Huh7, the CC50 was determined as 50 µM. In addition, in data set [1], the “CLint Liver S9” value came out at 6 µL/min/mg.
With `CCCC(CCC)COC(=O)[C@H](C)NP(=O)(OC[C@H]1OC[C@@H](n2ccc(N)nc2=O)O1)Oc1ccccc1` (single isomer, unassigned; dia-1) [8 dia-1], the half-maximal cytotoxic concentration (CC50) in the data set with Huh7 is 0.123 µM; in the data set with HepG2, 0.007 µM.
